Measurements from the supplement of paper PMC10307832.

Columns and labels:
Assay in all cases: relative viability (nuclei count vs DMSO), 5 days (fraction); higher = more cells survive
NCI-H2085 = system: NCI-H2085
How it was run: (§1)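 Values are medians from duplicate plates. Each reflects relative viability, defined as the nuclei count of treated wells over that of vehicle wells. Lung cancer cell lines in 1536-well plates were pin-tool dosed one day after seeding with one drug alone or with a fixed anchor-drug dose plus five library-drug doses (not always all listed) in √10 steps, then fixed, stained and imaged at 4× after 5 days.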

NCI-H2087 = system: NCI-H2087
How it was run: as §1

NCI-H2228 = system: NCI-H2228
How it was run: as §1

NCI-H322M = system: NCI-H322M
How it was run: as §1

NCI-H358 = system: NCI-H358
How it was run: as §1

NCI-H661 = system: NCI-H661
How it was run: as §1

NCI-H838 = system: NCI-H838
How it was run: as §1

PC-14 = system: PC-14
How it was run: as §1

PC-3 [JPC-3] = system: PC-3 [JPC-3]
How it was run: as §1

SK-MES-1 = system: SK-MES-1
How it was run: as §1

UMC-11 = system: UMC-11
How it was run: as §1

SMILES: O=c1[nH]c2ccccc2n1C1CCN(CCCC(c2ccc(F)cc2)c2ccc(F)cc2)CC1 [Pimozide] + Nc1nc2[nH]cc(CCc3ccc(C(=O)N[C@@H](CCC(=O)O)C(=O)O)cc3)c2c(=O)[nH]1 [Pemetrexed] (partner 0.2 µM)
- relative viability (NCI-H2085; first compound 0.08 µM): 0.812
- relative viability (NCI-H2085; first compound 0.253 µM): 1.01
- relative viability (NCI-H2085; first compound 0.8 µM): 0.745
- relative viability (NCI-H2085; first compound 2.53 µM): 0.938
- relative viability (NCI-H2085; first compound 8 µM): 0.735
- relative viability (NCI-H2087; first compound 0.08 µM): 0.655
- relative viability (NCI-H2087; first compound 0.253 µM): 0.608
- relative viability (NCI-H2087; first compound 2.53 µM): 0.616
- relative viability (NCI-H2087; first compound 8 µM): 0.642
- relative viability (NCI-H2228; first compound 0.08 µM): 0.329
- relative viability (NCI-H2228; first compound 0.253 µM): 0.369
- relative viability (NCI-H2228; first compound 0.8 µM): 0.306
- relative viability (NCI-H2228; first compound 2.53 µM): 0.334
- relative viability (NCI-H2228; first compound 8 µM): 0.229
- relative viability (NCI-H322M; first compound 0.08 µM): 0.571
- relative viability (NCI-H322M; first compound 0.253 µM): 0.668
- relative viability (NCI-H322M; first compound 0.8 µM): 0.622
- relative viability (NCI-H322M; first compound 2.53 µM): 0.604
- relative viability (NCI-H322M; first compound 8 µM): 0.609
- relative viability (NCI-H358; first compound 0.08 µM): 0.171
- relative viability (NCI-H358; first compound 0.253 µM): 0.178
- relative viability (NCI-H358; first compound 0.8 µM): 0.159
- relative viability (NCI-H358; first compound 2.53 µM): 0.172
- relative viability (NCI-H358; first compound 8 µM): 0.147
- relative viability (NCI-H661; first compound 0.08 µM): 0.914
- relative viability (NCI-H661; first compound 0.253 µM): 0.898
- relative viability (NCI-H661; first compound 0.8 µM): 0.844
- relative viability (NCI-H661; first compound 2.53 µM): 0.877
- relative viability (NCI-H661; first compound 8 µM): 0.797
- relative viability (NCI-H838; first compound 0.08 µM): 0.251
- relative viability (NCI-H838; first compound 0.253 µM): 0.242
- relative viability (NCI-H838; first compound 0.8 µM): 0.238
- relative viability (NCI-H838; first compound 2.53 µM): 0.236
- relative viability (NCI-H838; first compound 8 µM): 0.221
- relative viability (PC-14; first compound 0.253 µM): 0.14
- relative viability (PC-14; first compound 0.8 µM): 0.14
- relative viability (PC-14; first compound 2.53 µM): 0.0963
- relative viability (PC-14; first compound 8 µM): 0.063
- relative viability (PC-3 [JPC-3]; first compound 0.253 µM): 1.08
- relative viability (PC-3 [JPC-3]; first compound 0.8 µM): 1.04
- relative viability (PC-3 [JPC-3]; first compound 2.53 µM): 1.08
- relative viability (PC-3 [JPC-3]; first compound 8 µM): 0.985
- relative viability (SK-MES-1; first compound 0.08 µM): 0.982
- relative viability (SK-MES-1; first compound 0.253 µM): 0.861
- relative viability (SK-MES-1; first compound 0.8 µM): 0.919
- relative viability (SK-MES-1; first compound 2.53 µM): 0.888
- relative viability (SK-MES-1; first compound 8 µM): 0.902
- relative viability (UMC-11; first compound 0.08 µM): 0.82
- relative viability (UMC-11; first compound 0.253 µM): 0.681
- relative viability (UMC-11; first compound 0.8 µM): 0.748
- relative viability (UMC-11; first compound 2.53 µM): 0.772
- relative viability (UMC-11; first compound 8 µM): 0.725
